Assay results taken from PMC6152123, “Sites for Dynamic Protein-Carbohydrate Interactions of O- and C-Linked Mannosides on the E. coli FimH Adhesin” (Molecules : A Journal of Synthetic Chemistry and Natural …, 2017).
Read-outs that look alike come from different tables or passages of the source.

Assays:
FimH lectin domain [1] = target: T1, FimH lectin domain (Escherichia coli, UniProt P08191); test: biochemical; format: binding, E. coli strain J96; settings: for fold by which inhibition potential exceeds parent 115: Table 5
FimH = settings: read-out: Kd ITC (converted), cited from earlier work
FimH lectin domain [2] = target: T1, FimH lectin domain; settings: cited from earlier work
[3] = Kd SPR (nM), solution affinity by SPR competition, Tables 1-3
[4] = Kd (nM), Table 4, SPR detection, sulfonamide and amide spacers
[5] = Table 5, SPR, C-linked mannopyranosides
[6] = Kd (nM), Table 5, SPR, C-linked mannopyranosides
[7] = Figure S19, fit of solution affinity model to inhibition curve

T1 sequence (P08191 22-179 limits assumed): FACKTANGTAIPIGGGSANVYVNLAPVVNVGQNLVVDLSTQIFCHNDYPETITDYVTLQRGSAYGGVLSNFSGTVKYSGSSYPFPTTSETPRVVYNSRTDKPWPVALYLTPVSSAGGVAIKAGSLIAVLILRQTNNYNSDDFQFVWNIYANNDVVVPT

## OC[C@H]1O[C@H](OC/C=C/c2ccccc2)[C@@H](O)[C@@H](O)[C@@H]1O [Compound 22]
FimH lectin domain [1]; [3]
  Kd: 53 ± 7.5 nM

## OC[C@H]1O[C@H](OCCCc2ccccc2-c2ccccc2)[C@@H](O)[C@@H](O)[C@@H]1O [Compound 28]
FimH lectin domain [1]; [3]
  Kd: 13 ± 1.7 nM

## O=C(C[C@H]1O[C@H](CO)[C@@H](O)[C@H](O)[C@@H]1O)Nc1ccc(O)cc1 [Compound 95]
FimH lectin domain [1]; [4]
  Kd: 328 ± 63 nM

## CCSCCCO[C@H]1O[C@H](CO)[C@@H](O)[C@H](O)[C@@H]1O [Compound 38]
FimH lectin domain [1]; [3]
  Kd: 14 ± 7.6 nM

## OC[C@H]1O[C@H](OCC#Cc2ccc(-c3ccccc3)cc2)[C@@H](O)[C@@H](O)[C@@H]1O [Compound 51]
FimH lectin domain [1]; [3]
  Kd: 405 ± 24 nM

## OC[C@H]1O[C@H](C/C=C/c2cccc3ccccc23)[C@@H](O)[C@@H](O)[C@@H]1O [Compound 118]
FimH; Table S2
  Kd: 23 ± 5.5 nM
FimH lectin domain [1]; [5]
  Kd (nM): nf
FimH lectin domain [1]; Table S2
  Kd SPR (nM): nf

## O=[N+]([O-])c1ccc(C#CCO[C@H]2O[C@H](CO)[C@@H](O)[C@H](O)[C@@H]2O)cc1 [Compound 57]
FimH lectin domain [1]; [3]
  Kd: 816 ± 105 nM

## O=[N+]([O-])c1ccc(S(=O)(=O)NCCO[C@H]2O[C@H](CO)[C@@H](O)[C@H](O)[C@@H]2O)cc1 [Compound 71]
FimH lectin domain [1]; [4]
  Kd: 408 ± 52 nM

## OC[C@H]1O[C@H](OC/C=C/c2cccc3ccccc23)[C@@H](O)[C@@H](O)[C@@H]1O [Compound 25]
FimH; Tables 1-3
  Kd: 71 nM
FimH lectin domain [1]; [3]
  Kd: 5 ± 1.4 nM

## OC[C@H]1O[C@H](CCCc2ccccc2-c2ccccc2)[C@@H](O)[C@@H](O)[C@@H]1O [Compound 121]
FimH lectin domain [1]; [6]
  Kd: 123 ± 21 nM

## OCC#Cc1ccc(O[C@H]2O[C@H](CO)[C@@H](O)[C@H](O)[C@@H]2O)cc1 [Compound 61]
FimH lectin domain [1]; Kd SPR (nM), Table S2
  Kd: 6.9 ± 1 nM
FimH lectin domain [1]; [3]
  Kd: 36.9 ± 3 nM

## OC[C@H]1O[C@H](OCC#Cc2ccccc2-c2ccccc2)[C@@H](O)[C@@H](O)[C@@H]1O [Compound 52]
FimH lectin domain [1]; [3]
  Kd: 2250 ± 291 nM

## OC[C@H]1O[C@H](C/C=C/c2ccc(-c3ccccc3)cc2)[C@@H](O)[C@@H](O)[C@@H]1O [Compound 116]
FimH; Table S2
  Kd: 58 ± 14 nM
FimH lectin domain [1]; [6]
  Kd: 17 ± 3.5 nM
FimH lectin domain [1]; SPR Kd
  fold by which inhibition potential exceeds parent 115: ~4 fold

## CCC[C@H]1O[C@H](CO)[C@@H](O)[C@H](O)[C@@H]1O [Compound 123]
FimH lectin domain [1]; [6]
  Kd: 266 ± 26 nM

## OC[C@H]1O[C@H](OCC#Cc2cccc3ccccc23)[C@@H](O)[C@@H](O)[C@@H]1O [Compound 53]
FimH lectin domain [1]; [3]
  Kd: 120 ± 18 nM

## OC[C@H]1O[C@H](CCCc2ccc(-c3ccccc3)cc2)[C@@H](O)[C@@H](O)[C@@H]1O [Compound 120]
FimH lectin domain [1]; [5]
  Kd (nM): nf
FimH lectin domain [1]; Table S2
  Kd SPR (nM): nf

## OC[C@H]1O[C@H](CCCc2cccc3ccccc23)[C@@H](O)[C@@H](O)[C@@H]1O [Compound 122]
FimH lectin domain [1]; [5]
  Kd (nM): nf
FimH lectin domain [1]; Table S2
  Kd SPR (nM): nf

## CC(C)SCCCO[C@H]1O[C@H](CO)[C@@H](O)[C@H](O)[C@@H]1O [Compound 39]
FimH lectin domain [1]; [3]
  Kd: 11 ± 6.1 nM

## O=C(C[C@H]1O[C@H](CO)[C@@H](O)[C@H](O)[C@@H]1O)NCCCc1ccccc1 [Compound 93]
FimH lectin domain [1]; [4]
  Kd: 105 ± 44 nM
FimH lectin domain [1]; SPR Kd
  fold rise of FimH inhibitory capacity versus 91 and 92: 4 fold

## Cc1ccc(S(=O)(=O)NCCO[C@H]2O[C@H](CO)[C@@H](O)[C@H](O)[C@@H]2O)cc1 [Compound 72]
FimH lectin domain [1]; [4]
  Kd: 168 ± 64 nM

## OC[C@H]1O[C@H](C/C=C/c2ccccc2-c2ccccc2)[C@@H](O)[C@@H](O)[C@@H]1O [Compound 117]
FimH lectin domain [1]; [6]
  Kd: 6.9 ± 5.7 nM
FimH lectin domain [1]; SPR Kd
  fold by which inhibition potential exceeds parent 115: ~26 fold

## CC(=O)N[C@H]1[C@H](O[C@H]2[C@H](O)[C@@H](NC(C)=O)C(O)O[C@@H]2CO)O[C@H](CO)[C@@H](O[C@@H]2O[C@H](CO[C@H]3O[C@H](CO)[C@@H](O)[C@H](O)[C@@H]3O)[C@@H](O)[C@H](O[C@H]3O[C@H](CO)[C@@H](O)[C@H](O)[C@@H]3O)[C@@H]2O)[C@@H]1O (stereo partly shown) [oligomannoside-3, reference compound]
FimH lectin domain [1]; [7]
  KA: 49462067.1 M⁻¹
FimH lectin domain [1]; Figure S19, fit of solution affinity model to inhibition curve, read-out: KD
  Kd: 20.2 nM
FimH lectin domain [2]; highest-affinity natural epitope for FimH, Fab IC10 chip, read-out: Kd
  Kd: 20 nM

## COc1ccc(C#CCO[C@H]2O[C@H](CO)[C@@H](O)[C@H](O)[C@@H]2O)cc1 [Compound 56]
FimH lectin domain [1]; [3]
  Kd: 53 ± 2.3 nM

## OC[C@H]1O[C@H](OCCCSCc2ccccc2)[C@@H](O)[C@@H](O)[C@@H]1O [Compound 35]
FimH lectin domain [1]; [3]
  Kd: 16 ± 2.4 nM

## OC[C@H]1O[C@H](C/C=C/c2ccccc2)[C@@H](O)[C@@H](O)[C@@H]1O [Compound 115]
FimH lectin domain [1]; [6]
  Kd: 182 ± 25 nM
FimH lectin domain [1]; SPR Kd
  fold more active than amide-linked analog 91: 2 fold

## CCCSCCCO[C@H]1O[C@H](CO)[C@@H](O)[C@H](O)[C@@H]1O [Compound 37]
FimH lectin domain [1]; [3]
  Kd: 14 ± 5 nM

## OC[C@H]1O[C@H](OCCCc2ccccc2)[C@@H](O)[C@@H](O)[C@@H]1O [Compound 26]
FimH lectin domain [1]; [3]
  Kd: 59 ± 8.5 nM

## CC(C)(C)c1ccc(S(=O)(=O)NCCO[C@H]2O[C@H](CO)[C@@H](O)[C@H](O)[C@@H]2O)cc1 [Compound 73]
FimH lectin domain [1]; [4]
  Kd: 122 ± 11 nM

## OC[C@H]1O[C@H](OCCCc2ccc(-c3ccccc3)cc2)[C@@H](O)[C@@H](O)[C@@H]1O [Compound 27]
FimH; Tables 1-3
  Kd: 1.5 nM
FimH lectin domain [1]; [3]
  Kd: 10 ± 0.2 nM

## OC[C@H]1O[C@H](CCCSCc2ccccc2)[C@@H](O)[C@@H](O)[C@@H]1O [Compound 106]
FimH lectin domain [1]; [3]
  Kd: 25 ± 6.3 nM

## CCCCCCCCO[C@H]1O[C@H](CO)[C@@H](O)[C@H](O)[C@@H]1O [Compound 5a, octyl α-D-mannopyranoside, reference compound]
FimH lectin domain [1]; [7]
  KA: 46550590.5 M⁻¹
FimH lectin domain [1]; KD(M), Figure S19, fit of solution affinity model to inhibition curve
  Kd: 21.5 nM
FimH lectin domain [2]; read-out: Kd SPR, solution affinity by SPR
  Kd: 21 ± 0.2 nM

## CCCSCCC[C@H]1O[C@H](CO)[C@@H](O)[C@H](O)[C@@H]1O [Compound 108]
FimH lectin domain [1]; [3]
  Kd: 36 ± 9 nM

## OC[C@H]1O[C@H](OCC#Cc2ccccc2)[C@@H](O)[C@@H](O)[C@@H]1O [Compound 50]
FimH lectin domain [1]; [3]
  Kd: 168 ± 15 nM

## O=S(=O)(NCCO[C@H]1O[C@H](CO)[C@@H](O)[C@H](O)[C@@H]1O)c1cccc2ccccc12 [Compound 75]
FimH lectin domain [1]; [4]
  Kd: 148 ± 18 nM

## COCC#Cc1ccc(O[C@H]2O[C@H](CO)[C@@H](O)[C@H](O)[C@@H]2O)cc1 [Compound 62]
FimH; Tables 1-3
  Kd: 59.5 ± 2.3 nM
FimH lectin domain [1]; Table S2
  Kd SPR (nM): nf
FimH lectin domain [1]; solution affinity by SPR competition, Tables 1-3
  Kd SPR (nM): nf *

## CC(C)SCCC[C@H]1O[C@H](CO)[C@@H](O)[C@H](O)[C@@H]1O [Compound 110]
FimH lectin domain [1]; [3]
  Kd: 32 ± 4.1 nM

## OC[C@H]1O[C@H](OC/C=C/c2ccccc2-c2ccccc2)[C@@H](O)[C@@H](O)[C@@H]1O [Compound 24]
FimH lectin domain [1]; [3]
  Kd: 4.3 ± 0.8 nM

## OC[C@H]1O[C@H](CCCc2ccccc2)[C@@H](O)[C@@H](O)[C@@H]1O [Compound 119]
FimH lectin domain [1]; [6]
  Kd: 49 ± 5.3 nM

## CC(=O)Nc1ccc(NC(=O)C[C@H]2O[C@H](CO)[C@@H](O)[C@H](O)[C@@H]2O)cc1 [Compound 94]
FimH lectin domain [1]; [4]
  Kd: 227 ± 54 nM

## CCCCCCO[C@H]1O[C@H](CO)[C@@H](O)[C@H](O)[C@@H]1O [hexyl]
FimH lectin domain [2]; solution affinity by SPR, read-out: Kd SPR
  Kd: 10 nM

## OC[C@H]1O[C@H](OCCCc2cccc3ccccc23)[C@@H](O)[C@@H](O)[C@@H]1O [Compound 29]
FimH lectin domain [1]; [3]
  Kd: 22 ± 3 nM

## CCCCO[C@H]1O[C@H](CO)[C@@H](O)[C@H](O)[C@@H]1O [Compound 4, reference compound]
FimH; Tables 1-3
  Kd: 156 nM

## OC[C@H]1O[C@H](OCC#Cc2cccnc2)[C@@H](O)[C@@H](O)[C@@H]1O [Compound 55]
FimH lectin domain [1]; [3]
  Kd: 83 ± 5.6 nM

## CC(C)c1cc(C(C)C)c(S(=O)(=O)NCCO[C@H]2O[C@H](CO)[C@@H](O)[C@H](O)[C@@H]2O)c(C(C)C)c1 [Compound 74]
FimH lectin domain [1]; [4]
  Kd: 37 ± 5 nM

## CCSCCC[C@H]1O[C@H](CO)[C@@H](O)[C@H](O)[C@@H]1O [Compound 109]
FimH lectin domain [1]; [3]
  Kd: 78 ± 5.6 nM

## C=CC[C@H]1O[C@H](CO)[C@@H](O)[C@H](O)[C@@H]1O [Compound 78]
FimH lectin domain [1]; [6]
  Kd: 118 ± 20 nM

## CCCCSCCCO[C@H]1O[C@H](CO)[C@@H](O)[C@H](O)[C@@H]1O [Compound 36]
FimH lectin domain [1]; [3]
  Kd: 22 ± 2.7 nM

## O=C(C[C@H]1O[C@H](CO)[C@@H](O)[C@H](O)[C@@H]1O)NCc1ccccc1 [Compound 92]
FimH lectin domain [1]; [4]
  Kd: 397 ± 83 nM

## C#CCO[C@H]1O[C@H](CO)[C@@H](O)[C@H](O)[C@@H]1O [Compound 41]
FimH lectin domain [1]; [3]
  Kd: 490 ± 55 nM

## O=C(C[C@H]1O[C@H](CO)[C@@H](O)[C@H](O)[C@@H]1O)Nc1ccccc1 [Compound 91]
FimH lectin domain [1]; [4]
  Kd: 372 ± 26 nM

## O=S(=O)(NCCO[C@H]1O[C@H](CO)[C@@H](O)[C@H](O)[C@@H]1O)c1ccccc1 [Compound 70]
FimH lectin domain [1]; [4]
  Kd: 146 ± 26 nM

## CCCCSCCC[C@H]1O[C@H](CO)[C@@H](O)[C@H](O)[C@@H]1O [Compound 107]
FimH lectin domain [1]; [3]
  Kd: 22 ± 2.8 nM

## O=C(C[C@H]1O[C@H](CO)[C@@H](O)[C@H](O)[C@@H]1O)NCCc1ccc(O)cc1 [Compound 96]
FimH lectin domain [1]; [4]
  Kd: 970 ± 382 nM

## OC[C@H]1O[C@H](OCC#Cc2cccs2)[C@@H](O)[C@@H](O)[C@@H]1O [Compound 54]
FimH lectin domain [1]; [3]
  Kd: 133 ± 31 nM

## OC[C@H]1O[C@H](OC/C=C/c2ccc(-c3ccccc3)cc2)[C@@H](O)[C@@H](O)[C@@H]1O [Compound 23]
FimH lectin domain [1]; [3]
  Kd: 3 ± 1.1 nM
